According to ChEMBL document CHEMBL4610006, “Tetrahydroquinoline units in flexible heteroarotinoids (Flex-Hets) convey anti-cancer properties in A2780 ovarian cancer cells” (Bioorg Med Chem, 2020):

Assays:
A2780 [1] = assay: Antiproliferative activity against human A2780 cells assessed as cell growth inhibition measured after 72 hrs by CellTiter 96 non-radioactive cell proliferation assay; format: functional, cell-based; conditions: A2780, 72 h
[2] = target: T1, Stress-70 protein, mitochondrial (Homo sapiens, UniProt P38646)
Description: Binding affinity to mortalin substrate binding domain (unknown origin) assessed as change in Gibbs free energy

[3] = target: T1, Stress-70 protein, mitochondrial; assay: Binding affinity to mortalin substrate binding domain (unknown origin)
A2780 [4] = assay: Antiproliferative activity against human A2780 cells assessed as cell growth inhibition at 2 to 8 uM measured after 72 hrs by CellTiter 96 non-radioactive cell proliferation assay relative to control; format: functional

T1 sequence (P38646 whole entry, the tested form may be a part): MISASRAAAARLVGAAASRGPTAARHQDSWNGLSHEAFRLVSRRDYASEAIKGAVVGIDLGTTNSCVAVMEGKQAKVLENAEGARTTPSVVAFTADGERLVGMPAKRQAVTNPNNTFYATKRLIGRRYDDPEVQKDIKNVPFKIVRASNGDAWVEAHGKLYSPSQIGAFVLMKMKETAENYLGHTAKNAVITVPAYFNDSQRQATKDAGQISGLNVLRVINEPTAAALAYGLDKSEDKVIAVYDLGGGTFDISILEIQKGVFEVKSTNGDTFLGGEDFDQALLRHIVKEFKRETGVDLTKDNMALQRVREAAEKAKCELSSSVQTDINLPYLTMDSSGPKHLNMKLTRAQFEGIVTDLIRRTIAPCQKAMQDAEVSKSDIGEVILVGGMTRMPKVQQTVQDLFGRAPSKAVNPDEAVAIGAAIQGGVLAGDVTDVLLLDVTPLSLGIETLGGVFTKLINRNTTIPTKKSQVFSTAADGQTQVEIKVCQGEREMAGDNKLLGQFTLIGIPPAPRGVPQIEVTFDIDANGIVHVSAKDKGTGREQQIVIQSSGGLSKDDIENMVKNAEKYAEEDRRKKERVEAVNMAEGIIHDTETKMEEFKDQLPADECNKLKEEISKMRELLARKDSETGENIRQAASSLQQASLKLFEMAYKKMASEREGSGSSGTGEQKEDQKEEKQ

Question: With `CN1c2ccc(NC(=O)Nc3ccc([N+](=O)[O-])cc3)cc2C(C)(C)C(O)C1(C)C` (configuration not stated) as the compound, how does the IC50 (A2780 [1]) read?
Answer: 8.4 µM

Question: What about the deltaG [2] of the same compound?
Answer: -8 kcal/mol

Question: What about the Kd [3] of the same compound?
Answer: 1.6 µM

Question: Which IC50 (A2780 [1]) does the source give for `CN1c2ccc(NC(=S)Nc3ccc(OC(F)(F)F)cc3)cc2C(C)(C)C(=O)C1(C)C` here?
Answer: 5.4 µM

Question: And the deltaG [2]?
Answer: -7.7 kcal/mol

Question: What about the Kd [3] of the same compound?
Answer: 2.4 µM

Question: `CN1c2ccc(NC(=O)Nc3ccc(C(F)(F)F)cc3)cc2C(C)(C)C(=O)C1(C)C` was tested. Which IC50 (A2780 [1]) did it give?
Answer: 2.58 µM

Question: And the deltaG [2]?
Answer: -8 kcal/mol

Question: What about the Kd [3] of the same compound?
Answer: 1.5 µM

Question: What does the source list for `CC1(C)CCNc2ccc(NC(=S)Nc3ccc([N+](=O)[O-])cc3)cc21`?
Answer: IC50 (A2780 [1]): 7.1 µM; deltaG [2]: -7.9 kcal/mol; Kd [3]: 1.6 µM

Question: Which IC50 (A2780 [1]) does the source give for `CC1(C)CCNc2ccc(NC(=S)Nc3ccc(OC(F)(F)F)cc3)cc21` here?
Answer: 7.1 µM

Question: And the deltaG [2]?
Answer: -7.2 kcal/mol

Question: And the Kd [3]?
Answer: 5.4 µM

Question: What does the source list for `CN1c2ccc(NC(=O)Nc3ccc(OC(F)(F)F)cc3)cc2C(C)(C)C(=O)C1(C)C`?
Answer: IC50 (A2780 [1]): 2.4 µM; deltaG [2]: -7.9 kcal/mol; Kd [3]: 1.8 µM

Question: Which IC50 (A2780 [1]) does the source give for `CC1(C)CCNc2ccc(NC(=S)Nc3ccc(C(F)(F)F)cc3)cc21` here?
Answer: 6 µM

Question: What about the deltaG [2] of the same compound?
Answer: -7.5 kcal/mol

Question: And the Kd [3]?
Answer: 3.3 µM

Question: Which results are given for `CN1c2ccc(NC(=S)Nc3ccc(C(F)(F)F)cc3)cc2C(C)(C)C(=O)C1(C)C`?
Answer: Efficacy (A2780 [4]): 90.8%; IC50 (A2780 [1]): 3.9 µM

Question: Which results are given for `CC1(C)CC(C)(C)c2cc(NC(=S)Nc3ccc([N+](=O)[O-])cc3)ccc2S1` [SHETA-2]?
Answer: deltaG [2]: -8.5 kcal/mol; Kd [3]: 0.6 µM

Question: For `CN1c2ccc(NC(=S)Nc3ccc([N+](=O)[O-])cc3)cc2C(C)(C)CC1(C)C`, which IC50 (A2780 [1]) is on record?
Answer: 4.5 µM

Question: And the deltaG [2]?
Answer: -8.7 kcal/mol

Question: And the Kd [3]?
Answer: 0.5 µM

Question: With `CN1c2ccc(NC(=S)Nc3ccc(C(F)(F)F)cc3)cc2C(C)(C)C(O)C1(C)C` (configuration not stated) as the compound, how does the IC50 (A2780 [1]) read?
Answer: 7.6 µM

Question: What about the deltaG [2] of the same compound?
Answer: -7.7 kcal/mol

Question: What about the Kd [3] of the same compound?
Answer: 2.3 µM

Question: How did the IC50 (A2780 [1]) turn out when `CN1c2ccc(NC(=S)Nc3ccc([N+](=O)[O-])cc3)cc2C(C)(C)C(=O)C1(C)C` was run?
Answer: 4.4 µM

Question: And the deltaG [2]?
Answer: -8.2 kcal/mol

Question: And the Kd [3]?
Answer: 1.1 µM

Question: For `CN1c2ccc(NC(=O)Nc3ccc(N)cc3)cc2C(C)(C)C(=O)C1(C)C`, which IC50 (A2780 [1]) is on record?
Answer: 7.7 µM

Question: What about the deltaG [2] of the same compound?
Answer: -8.2 kcal/mol

Question: And the Kd [3]?
Answer: 1.1 µM

Question: With `CN1c2ccc(NC(=O)Nc3ccc([N+](=O)[O-])cc3)cc2C(C)(C)C(=O)C1(C)C` as the compound, how does the IC50 (A2780 [1]) read?
Answer: 3.8 µM

Question: What about the deltaG [2] of the same compound?
Answer: -8.9 kcal/mol

Question: What about the Kd [3] of the same compound?
Answer: 0.3 µM

Question: What does the source list for `CN1c2ccc(NC(=O)Nc3ccc(OC(F)(F)F)cc3)cc2C(C)(C)C(O)C1(C)C` (configuration not stated)?
Answer: IC50 (A2780 [1]): 7.8 µM; deltaG [2]: -8.2 kcal/mol; Kd [3]: 1.1 µM

Question: With `CN1c2ccc(NC(=O)Nc3ccc(C(F)(F)F)cc3)cc2C(C)(C)C(O)C1(C)C` (configuration not stated) as the compound, how does the IC50 (A2780 [1]) read?
Answer: 6.7 µM

Question: What about the deltaG [2] of the same compound?
Answer: -8.4 kcal/mol

Question: And the Kd [3]?
Answer: 0.7 µM

Question: How did the IC50 (A2780 [1]) turn out when `CN1c2ccc(NC(=S)Nc3ccc(OC(F)(F)F)cc3)cc2C(C)(C)C(O)C1(C)C` (configuration not stated) was run?
Answer: 13.1 µM

Question: And the deltaG [2]?
Answer: -7.6 kcal/mol

Question: What about the Kd [3] of the same compound?
Answer: 2.9 µM

Question: For `CC1(C)CCNc2ccc(NC(=O)Nc3ccc([N+](=O)[O-])cc3)cc21`, which IC50 (A2780 [1]) is on record?
Answer: 6.9 µM

Question: And the deltaG [2]?
Answer: -8.2 kcal/mol

Question: What about the Kd [3] of the same compound?
Answer: 1.1 µM

Question: `CC1(C)CC[N+](C)(C)c2ccc(NC(=O)Nc3ccc([N+](=O)[O-])cc3)cc21` was tested. Which IC50 (A2780 [1]) did it give?
Answer: 6.6 µM

Question: And the deltaG [2]?
Answer: -8.5 kcal/mol

Question: And the Kd [3]?
Answer: 0.7 µM

Question: Which results are given for `CN1c2ccc(NC(=S)Nc3ccc([N+](=O)[O-])cc3)cc2C(C)(C)C(O)C1(C)C` (configuration not stated)?
Answer: Efficacy (A2780 [4]): 25%; IC50 (A2780 [1]): 10 µM
